# Measurements from ChEMBL document CHEMBL1201862, “PubChem BioAssay data set” (2004).
# Where a name gives a salt, the structure may show the parent alone.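 Briefly, cells in 96-well plates were exposed to five compound concentrations for 48 h, and endpoints were estimated by linear interpolation. The concentration for 50% growth inhibition is given as GI50.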 Calls of active or inactive are those of the source. Cut-off read from the data, not from the text of the source: active = GI50 up to about 1.1 µM and inactive = higher.
# What was measured:
# Test in all cases: NCI anticancer screen, dose series, 48 h
# 786-0 = system: 786-0
# A498 = system: A498
# A549 = system: A549
# ACHN = system: ACHN
# BT-549 = system: BT-549
# CAKI-1 = system: CAKI-1
# CCRF-CEM = system: CCRF-CEM
# COLO 205 = system: COLO 205
# DU-145 = system: DU-145
# EKVX = system: EKVX
# HCC 2998 = system: HCC 2998
# HCT-116 = system: HCT-116
# HCT-15 = system: HCT-15
# HL-60 = system: HL-60
# HOP-62 = system: HOP-62
# HOP-92 = system: HOP-92
# HT-29 = system: HT-29
# Hs-578T = system: Hs-578T
# IGROV-1 = system: IGROV-1
# K562 = system: K562
# KM12 = system: KM12
# LOX IMVI = system: LOX IMVI
# M14 = system: M14
# MCF7 = system: MCF7
# MDA-MB-231 = system: MDA-MB-231
# MDA-MB-435 = system: MDA-MB-435
# MDA-N = system: MDA-N
# MOLT-4 = system: MOLT-4
# Malme-3M = system: Malme-3M
# NCI-H226 = system: NCI-H226
# NCI-H23 = system: NCI-H23
# NCI-H460 = system: NCI-H460
# NCI-H522 = system: NCI-H522
# NCI/ADR-RES = system: NCI/ADR-RES
# OVCAR-3 = system: OVCAR-3
# OVCAR-4 = system: OVCAR-4
# OVCAR-5 = system: OVCAR-5
# OVCAR-8 = system: OVCAR-8
# PC-3 = system: PC-3
# RPMI-8226 = system: RPMI-8226
# RXF 393 = system: RXF 393
# SF-268 = system: SF-268
# SF-295 = system: SF-295
# SF-539 = system: SF-539
# SK-MEL-28 = system: SK-MEL-28
# SK-MEL-2 = system: SK-MEL-2
# SK-MEL-5 = system: SK-MEL-5
# SK-OV-3 = system: SK-OV-3
# SN12C = system: SN12C
# SNB-19 = system: SNB-19
# SNB-75 = system: SNB-75
# SR = system: SR
# SW-620 = system: SW-620
# T47D = system: T47D
# TK-10 = system: TK-10
# U-251 = system: U-251
# UACC-257 = system: UACC-257
# UACC-62 = system: UACC-62
# UO-31 = system: UO-31
smiles,measurement,setting,value
CCc1nc(N)nc(N)c1-c1ccc(NCCN)c([N+](=O)[O-])c1,GI50,786-0,7.03 µM (inactive)
same,GI50,A498,17.7 µM (inactive)
same,GI50,A549,4.19 µM (inactive)
same,GI50,ACHN,34.9 µM (inactive)
same,GI50,BT-549,36.1 µM (inactive)
same,GI50,CAKI-1,53.1 µM (inactive)
same,GI50,CCRF-CEM,4.41 µM (inactive)
same,GI50,COLO 205,14.2 µM (inactive)
same,GI50,DU-145,20.5 µM (inactive)
same,GI50,EKVX,29 µM (inactive)
same,GI50,HCC 2998,10.4 µM (inactive)
same,GI50,HCT-116,2.52 µM (inactive)
same,GI50,HCT-15,37 µM
same,GI50,HL-60,3.99 µM (inactive)
same,GI50,HOP-62,18.2 µM (inactive)
same,GI50,HOP-92,27.6 µM (inactive)
same,GI50,HT-29,6.11 µM (inactive)
same,GI50,Hs-578T,89.1 µM (inactive)
same,GI50,IGROV-1,8.97 µM (inactive)
same,GI50,K562,1.09 µM (active)
same,GI50,KM12,17.7 µM (inactive)
same,GI50,LOX IMVI,4.24 µM (inactive)
same,GI50,M14,8.63 µM (inactive)
same,GI50,MCF7,10.2 µM (inactive)
same,GI50,MDA-MB-231,20.2 µM (inactive)
same,GI50,MDA-MB-435,7.13 µM (inactive)
same,GI50,MDA-N,6.92 µM (inactive)
same,GI50,MOLT-4,7.16 µM (inactive)
same,GI50,Malme-3M,13.7 µM (inactive)
same,GI50,NCI-H226,> 96.8 µM (inactive)
same,GI50,NCI-H23,7.4 µM (inactive)
same,GI50,NCI-H460,2.75 µM (inactive)
same,GI50,NCI-H522,13.7 µM (inactive)
same,GI50,NCI/ADR-RES,> 100 µM (inactive)
same,GI50,OVCAR-3,21.8 µM (inactive)
same,GI50,OVCAR-4,20.7 µM (inactive)
same,GI50,OVCAR-5,33.9 µM (inactive)
same,GI50,OVCAR-8,7.67 µM (inactive)
same,GI50,PC-3,6.53 µM (inactive)
same,GI50,RPMI-8226,29.6 µM (inactive)
same,GI50,RXF 393,39 µM (inactive)
same,GI50,SF-268,7.1 µM (inactive)
same,GI50,SF-295,11.3 µM (inactive)
same,GI50,SF-539,11.6 µM (inactive)
same,GI50,SK-MEL-28,> 59.3 µM (inactive)
same,GI50,SK-MEL-2,46.7 µM (inactive)
same,GI50,SK-MEL-5,9.79 µM (inactive)
same,GI50,SK-OV-3,82.8 µM (inactive)
same,GI50,SN12C,12.1 µM (inactive)
same,GI50,SNB-19,24.7 µM (inactive)
same,GI50,SNB-75,19.7 µM (inactive)
same,GI50,SR,4 µM (inactive)
same,GI50,SW-620,5 µM (inactive)
same,GI50,T47D,33.6 µM (inactive)
same,GI50,TK-10,> 88.7 µM (inactive)
same,GI50,U-251,9.08 µM (inactive)
same,GI50,UACC-257,14.3 µM (inactive)
same,GI50,UACC-62,6.3 µM (inactive)
same,GI50,UO-31,> 100 µM (inactive)
COc1ccc(NC(=O)CC(=O)n2nc(C)c(/N=N/c3ccc(C)c(C)c3)c2C)cc1,GI50,786-0,41.6 µM (inactive)
same,GI50,A498,63.8 µM (inactive)
same,GI50,A549,> 100 µM (inactive)
same,GI50,ACHN,82.6 µM (inactive)
same,GI50,BT-549,> 100 µM (inactive)
same,GI50,CAKI-1,> 100 µM (inactive)
same,GI50,CCRF-CEM,> 100 µM (inactive)
same,GI50,COLO 205,> 100 µM (inactive)
same,GI50,DU-145,> 100 µM (inactive)
same,GI50,EKVX,15.1 µM (inactive)
same,GI50,HCC 2998,> 100 µM (inactive)
same,GI50,HCT-116,> 100 µM (inactive)
same,GI50,HL-60,48.3 µM (inactive)
same,GI50,HOP-62,22.9 µM (inactive)
same,GI50,HOP-92,16 µM (inactive)
same,GI50,HT-29,> 100 µM (inactive)
same,GI50,Hs-578T,25.2 µM (inactive)
same,GI50,IGROV-1,29.4 µM (inactive)
same,GI50,KM12,> 100 µM (inactive)
same,GI50,LOX IMVI,50.5 µM (inactive)
same,GI50,M14,> 100 µM (inactive)
same,GI50,MCF7,> 100 µM (inactive)
same,GI50,MDA-MB-231,> 100 µM (inactive)
same,GI50,MDA-MB-435,> 100 µM (inactive)
same,GI50,MDA-N,> 100 µM (inactive)
same,GI50,MOLT-4,78.3 µM (inactive)
same,GI50,Malme-3M,> 100 µM (inactive)
same,GI50,NCI-H226,51.3 µM (inactive)
same,GI50,NCI-H23,71.4 µM (inactive)
same,GI50,NCI-H460,> 100 µM (inactive)
same,GI50,NCI-H522,> 100 µM (inactive)
same,GI50,NCI/ADR-RES,> 100 µM (inactive)
same,GI50,OVCAR-3,> 100 µM (inactive)
same,GI50,OVCAR-4,> 100 µM (inactive)
same,GI50,OVCAR-5,> 100 µM (inactive)
same,GI50,OVCAR-8,29.7 µM (inactive)
same,GI50,PC-3,> 100 µM (inactive)
same,GI50,RPMI-8226,> 100 µM (inactive)
same,GI50,RXF 393,32.4 µM (inactive)
same,GI50,SF-268,33.8 µM (inactive)
same,GI50,SF-295,54.7 µM (inactive)
same,GI50,SF-539,26.5 µM (inactive)
same,GI50,SK-MEL-28,> 100 µM (inactive)
same,GI50,SK-MEL-2,> 100 µM (inactive)
same,GI50,SK-MEL-5,> 100 µM (inactive)
same,GI50,SK-OV-3,10.8 µM (inactive)
same,GI50,SN12C,> 100 µM (inactive)
same,GI50,SNB-19,58.3 µM (inactive)
same,GI50,SNB-75,39.2 µM (inactive)
same,GI50,SR,43.3 µM (inactive)
same,GI50,SW-620,> 100 µM (inactive)
same,GI50,T47D,64.7 µM (inactive)
same,GI50,TK-10,55.1 µM (inactive)
same,GI50,U-251,23 µM (inactive)
same,GI50,UACC-257,> 10 µM (inactive)
same,GI50,UACC-62,> 100 µM (inactive)
same,GI50,UO-31,24.5 µM (inactive)
CC(C)C[C@H]1C(=O)N2CCC[C@H]2[C@]2(O)O[C@](NC(=O)[C@@H]3C=C4c5cccc6[nH]c(Br)c(c56)C[C@H]4N(C)C3)(C(C)C)C(=O)N12 [BROMOCRIPTINE MESYLATE],GI50,786-0,53.2 µM (inactive)
same,GI50,A498,> 100 µM (inactive)
same,GI50,A549,6.98 µM (inactive)
same,GI50,ACHN,13 µM (inactive)
same,GI50,BT-549,> 100 µM (inactive)
same,GI50,CAKI-1,46.1 µM (inactive)
same,GI50,CCRF-CEM,4.56 µM (inactive)
same,GI50,COLO 205,5.27 µM (inactive)
same,GI50,DU-145,> 100 µM (inactive)
same,GI50,EKVX,4.74 µM (inactive)
same,GI50,HCC 2998,32.8 µM (inactive)
same,GI50,HCT-116,5.33 µM (inactive)
same,GI50,HCT-15,8.67 µM
same,GI50,HL-60,2.51 µM (inactive)
same,GI50,HOP-62,> 100 µM (inactive)
same,GI50,HOP-92,> 100 µM (inactive)
same,GI50,HT-29,13.6 µM (inactive)
same,GI50,Hs-578T,25.2 µM (inactive)
same,GI50,IGROV-1,67.5 µM (inactive)
same,GI50,K562,4.65 µM (inactive)
same,GI50,KM12,9.82 µM (inactive)
same,GI50,LOX IMVI,> 100 µM (inactive)
same,GI50,M14,61.1 µM (inactive)
same,GI50,MCF7,8.87 µM (inactive)
same,GI50,MDA-MB-231,> 100 µM (inactive)
same,GI50,MDA-MB-435,38.2 µM (inactive)
same,GI50,MDA-N,69.8 µM (inactive)
same,GI50,MOLT-4,4.34 µM (inactive)
same,GI50,Malme-3M,36.5 µM (inactive)
same,GI50,NCI-H226,51.2 µM (inactive)
same,GI50,NCI-H460,10.8 µM (inactive)
same,GI50,NCI-H522,34 µM (inactive)
same,GI50,NCI/ADR-RES,9.35 µM (inactive)
same,GI50,OVCAR-3,8.87 µM (inactive)
same,GI50,OVCAR-4,> 100 µM (inactive)
same,GI50,OVCAR-5,> 100 µM (inactive)
same,GI50,OVCAR-8,> 100 µM (inactive)
same,GI50,PC-3,4.17 µM (inactive)
same,GI50,RPMI-8226,3.8 µM (inactive)
same,GI50,RXF 393,24.7 µM (inactive)
same,GI50,SF-268,59.6 µM (inactive)
same,GI50,SF-295,39.8 µM (inactive)
same,GI50,SF-539,> 100 µM (inactive)
same,GI50,SK-MEL-28,> 100 µM (inactive)
same,GI50,SK-MEL-2,> 100 µM (inactive)
same,GI50,SK-MEL-5,21.7 µM (inactive)
same,GI50,SK-OV-3,> 100 µM (inactive)
same,GI50,SN12C,56.1 µM (inactive)
same,GI50,SNB-19,> 100 µM (inactive)
same,GI50,SNB-75,40.9 µM (inactive)
same,GI50,SR,6.11 µM (inactive)
same,GI50,SW-620,72.6 µM (inactive)
same,GI50,T47D,28.2 µM (inactive)
same,GI50,TK-10,15.1 µM (inactive)
same,GI50,U-251,35.8 µM (inactive)
same,GI50,UACC-257,49.5 µM (inactive)
same,GI50,UACC-62,> 100 µM (inactive)
same,GI50,UO-31,4.61 µM (inactive)
